From doi:10.1101/2023.11.24.568596v1 (biorxiv, 2023)

How the values were obtained:
Conditions in all cases: binder
BRPF1 = biological target: T1, BRPF1 (Homo sapiens, UniProt P55201)
T1 sequence (P55201 1-1214): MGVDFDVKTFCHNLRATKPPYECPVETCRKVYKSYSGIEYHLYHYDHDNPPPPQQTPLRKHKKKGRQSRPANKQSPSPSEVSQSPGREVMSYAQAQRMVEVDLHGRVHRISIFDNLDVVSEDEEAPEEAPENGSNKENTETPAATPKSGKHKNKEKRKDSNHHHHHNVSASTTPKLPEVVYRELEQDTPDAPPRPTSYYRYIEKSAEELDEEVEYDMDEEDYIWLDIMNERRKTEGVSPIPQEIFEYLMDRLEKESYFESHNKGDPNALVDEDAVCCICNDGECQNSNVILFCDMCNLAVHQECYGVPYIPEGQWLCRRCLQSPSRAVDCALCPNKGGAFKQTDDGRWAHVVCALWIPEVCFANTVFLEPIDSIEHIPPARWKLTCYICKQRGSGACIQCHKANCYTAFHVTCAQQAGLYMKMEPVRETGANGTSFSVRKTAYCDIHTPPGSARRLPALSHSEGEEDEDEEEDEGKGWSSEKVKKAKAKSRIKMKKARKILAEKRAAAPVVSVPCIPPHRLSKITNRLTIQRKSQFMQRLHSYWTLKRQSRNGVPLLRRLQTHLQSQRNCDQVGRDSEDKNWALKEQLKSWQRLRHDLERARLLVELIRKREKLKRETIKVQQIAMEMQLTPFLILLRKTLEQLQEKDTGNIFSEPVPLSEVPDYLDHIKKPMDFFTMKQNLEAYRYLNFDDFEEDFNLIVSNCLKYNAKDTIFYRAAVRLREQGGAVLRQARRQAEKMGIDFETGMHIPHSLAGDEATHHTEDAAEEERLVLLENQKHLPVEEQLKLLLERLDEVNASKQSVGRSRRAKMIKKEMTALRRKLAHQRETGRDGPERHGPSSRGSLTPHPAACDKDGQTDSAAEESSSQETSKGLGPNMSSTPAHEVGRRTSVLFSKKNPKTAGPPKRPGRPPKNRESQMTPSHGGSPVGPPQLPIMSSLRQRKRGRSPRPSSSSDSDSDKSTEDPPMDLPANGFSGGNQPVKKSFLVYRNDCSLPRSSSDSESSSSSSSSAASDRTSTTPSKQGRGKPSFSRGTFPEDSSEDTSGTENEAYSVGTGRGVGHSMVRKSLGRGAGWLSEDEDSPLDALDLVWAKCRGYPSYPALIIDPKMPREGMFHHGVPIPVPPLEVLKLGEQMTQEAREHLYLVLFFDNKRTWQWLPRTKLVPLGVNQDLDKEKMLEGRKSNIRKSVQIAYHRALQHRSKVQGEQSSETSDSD

EphA5 = EphA5 (Homo sapiens, UniProt P54756)
Chain of EphA5 (P54756 whole entry): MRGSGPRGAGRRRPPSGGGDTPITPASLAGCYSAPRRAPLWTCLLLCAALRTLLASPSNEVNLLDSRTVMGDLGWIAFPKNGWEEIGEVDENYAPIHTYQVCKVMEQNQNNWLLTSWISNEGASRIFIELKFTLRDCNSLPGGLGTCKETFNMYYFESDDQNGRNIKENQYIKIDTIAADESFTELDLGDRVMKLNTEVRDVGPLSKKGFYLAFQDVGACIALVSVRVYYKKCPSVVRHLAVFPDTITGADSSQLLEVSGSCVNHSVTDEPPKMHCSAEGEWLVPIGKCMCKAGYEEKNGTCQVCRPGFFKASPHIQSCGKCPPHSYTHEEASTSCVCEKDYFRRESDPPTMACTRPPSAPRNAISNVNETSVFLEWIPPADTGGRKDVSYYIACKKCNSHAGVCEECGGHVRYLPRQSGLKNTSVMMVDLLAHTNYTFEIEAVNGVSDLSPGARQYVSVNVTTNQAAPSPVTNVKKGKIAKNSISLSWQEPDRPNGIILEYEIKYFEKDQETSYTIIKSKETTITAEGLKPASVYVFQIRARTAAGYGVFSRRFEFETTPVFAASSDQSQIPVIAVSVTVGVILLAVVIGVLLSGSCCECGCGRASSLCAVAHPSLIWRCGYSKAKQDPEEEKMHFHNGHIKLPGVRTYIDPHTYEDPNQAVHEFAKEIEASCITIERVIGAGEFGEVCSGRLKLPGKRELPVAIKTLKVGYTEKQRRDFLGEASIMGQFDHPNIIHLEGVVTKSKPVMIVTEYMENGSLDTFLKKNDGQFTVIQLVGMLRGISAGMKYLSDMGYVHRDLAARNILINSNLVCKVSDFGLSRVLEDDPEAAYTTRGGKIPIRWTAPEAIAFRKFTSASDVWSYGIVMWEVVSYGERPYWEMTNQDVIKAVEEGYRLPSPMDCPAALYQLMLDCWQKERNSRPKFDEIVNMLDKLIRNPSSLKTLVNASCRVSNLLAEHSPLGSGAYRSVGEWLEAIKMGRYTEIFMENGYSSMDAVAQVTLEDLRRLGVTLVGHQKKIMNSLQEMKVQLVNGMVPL

CaMK1g = CaMK1g (Homo sapiens, UniProt Q96NX5)
Chain of CaMK1g (Q96NX5 whole entry): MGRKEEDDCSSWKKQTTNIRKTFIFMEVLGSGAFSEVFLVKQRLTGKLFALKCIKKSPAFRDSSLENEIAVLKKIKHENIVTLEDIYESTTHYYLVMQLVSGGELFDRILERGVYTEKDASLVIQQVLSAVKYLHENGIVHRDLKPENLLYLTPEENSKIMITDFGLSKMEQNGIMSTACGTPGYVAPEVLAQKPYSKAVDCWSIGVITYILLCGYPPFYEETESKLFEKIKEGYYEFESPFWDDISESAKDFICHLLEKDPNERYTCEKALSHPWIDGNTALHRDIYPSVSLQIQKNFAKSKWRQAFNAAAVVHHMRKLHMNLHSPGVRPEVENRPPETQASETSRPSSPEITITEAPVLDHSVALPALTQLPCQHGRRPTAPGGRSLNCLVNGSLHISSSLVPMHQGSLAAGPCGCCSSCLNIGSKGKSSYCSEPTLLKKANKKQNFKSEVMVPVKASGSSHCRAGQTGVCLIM

BMPR2 = biological target: T2, BMPR2 (Homo sapiens, UniProt Q13873)
T2 sequence (Q13873 1-1038): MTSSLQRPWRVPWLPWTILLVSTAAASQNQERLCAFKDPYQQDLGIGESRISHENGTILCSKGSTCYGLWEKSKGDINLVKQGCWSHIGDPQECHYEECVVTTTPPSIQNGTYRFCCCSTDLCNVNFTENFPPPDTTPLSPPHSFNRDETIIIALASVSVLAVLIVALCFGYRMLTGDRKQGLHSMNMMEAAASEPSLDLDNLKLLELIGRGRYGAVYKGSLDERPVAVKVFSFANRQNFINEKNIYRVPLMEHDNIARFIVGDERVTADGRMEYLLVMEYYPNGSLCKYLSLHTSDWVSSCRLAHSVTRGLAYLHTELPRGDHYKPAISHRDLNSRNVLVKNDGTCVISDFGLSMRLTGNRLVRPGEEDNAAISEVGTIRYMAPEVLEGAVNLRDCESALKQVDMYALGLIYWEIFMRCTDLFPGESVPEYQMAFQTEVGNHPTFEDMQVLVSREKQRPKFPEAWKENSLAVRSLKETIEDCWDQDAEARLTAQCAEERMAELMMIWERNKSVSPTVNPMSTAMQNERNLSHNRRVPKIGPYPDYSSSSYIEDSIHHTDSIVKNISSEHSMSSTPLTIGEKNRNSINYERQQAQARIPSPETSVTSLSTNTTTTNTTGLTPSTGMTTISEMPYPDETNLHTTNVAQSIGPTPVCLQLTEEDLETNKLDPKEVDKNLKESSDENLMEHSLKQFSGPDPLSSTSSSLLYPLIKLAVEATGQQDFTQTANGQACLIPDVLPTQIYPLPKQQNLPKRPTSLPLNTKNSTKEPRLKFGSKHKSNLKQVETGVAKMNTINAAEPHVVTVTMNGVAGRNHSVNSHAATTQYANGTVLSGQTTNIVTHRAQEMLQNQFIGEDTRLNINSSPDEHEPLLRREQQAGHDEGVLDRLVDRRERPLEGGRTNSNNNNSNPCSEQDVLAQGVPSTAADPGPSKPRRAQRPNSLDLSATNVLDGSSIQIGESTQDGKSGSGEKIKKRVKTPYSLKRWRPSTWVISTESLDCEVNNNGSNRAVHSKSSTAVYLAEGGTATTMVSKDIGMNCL

CaMK2d = CaMK2d (Homo sapiens, UniProt Q13557)
Chain of CaMK2d (Q13557 whole entry): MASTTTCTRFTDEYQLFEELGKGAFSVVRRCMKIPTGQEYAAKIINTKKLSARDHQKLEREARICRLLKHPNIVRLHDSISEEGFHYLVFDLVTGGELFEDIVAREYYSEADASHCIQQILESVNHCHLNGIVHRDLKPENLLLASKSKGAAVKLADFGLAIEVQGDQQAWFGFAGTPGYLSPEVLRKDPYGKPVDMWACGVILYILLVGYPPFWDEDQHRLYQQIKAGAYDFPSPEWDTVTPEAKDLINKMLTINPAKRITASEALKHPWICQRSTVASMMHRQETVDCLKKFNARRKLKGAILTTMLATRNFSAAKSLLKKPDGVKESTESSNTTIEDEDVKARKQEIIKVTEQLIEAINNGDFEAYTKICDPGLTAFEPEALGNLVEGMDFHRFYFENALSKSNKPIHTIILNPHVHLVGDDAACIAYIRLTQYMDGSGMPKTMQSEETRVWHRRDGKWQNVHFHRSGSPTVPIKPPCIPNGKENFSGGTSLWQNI

DYRK1A = DYRK1A (Homo sapiens, UniProt Q13627)
CLK1 = CLK1 (Homo sapiens, UniProt P49759)
Chain of CLK1 (P49759 whole entry): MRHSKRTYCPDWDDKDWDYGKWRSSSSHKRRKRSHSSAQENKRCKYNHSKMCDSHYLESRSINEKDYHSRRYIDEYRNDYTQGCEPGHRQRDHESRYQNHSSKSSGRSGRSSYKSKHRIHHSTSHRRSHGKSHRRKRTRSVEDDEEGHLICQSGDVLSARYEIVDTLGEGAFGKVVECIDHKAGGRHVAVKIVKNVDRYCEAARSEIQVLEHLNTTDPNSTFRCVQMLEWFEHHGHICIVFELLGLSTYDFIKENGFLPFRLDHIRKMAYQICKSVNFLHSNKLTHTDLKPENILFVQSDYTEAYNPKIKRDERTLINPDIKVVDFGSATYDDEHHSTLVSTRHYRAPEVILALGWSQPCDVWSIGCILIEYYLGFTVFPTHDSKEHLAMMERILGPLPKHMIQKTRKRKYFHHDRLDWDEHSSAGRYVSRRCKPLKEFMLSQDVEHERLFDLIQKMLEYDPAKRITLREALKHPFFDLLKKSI

CaMK1d = CaMK1d (Homo sapiens, UniProt Q8IU85)
Chain of CaMK1d (Q8IU85 whole entry): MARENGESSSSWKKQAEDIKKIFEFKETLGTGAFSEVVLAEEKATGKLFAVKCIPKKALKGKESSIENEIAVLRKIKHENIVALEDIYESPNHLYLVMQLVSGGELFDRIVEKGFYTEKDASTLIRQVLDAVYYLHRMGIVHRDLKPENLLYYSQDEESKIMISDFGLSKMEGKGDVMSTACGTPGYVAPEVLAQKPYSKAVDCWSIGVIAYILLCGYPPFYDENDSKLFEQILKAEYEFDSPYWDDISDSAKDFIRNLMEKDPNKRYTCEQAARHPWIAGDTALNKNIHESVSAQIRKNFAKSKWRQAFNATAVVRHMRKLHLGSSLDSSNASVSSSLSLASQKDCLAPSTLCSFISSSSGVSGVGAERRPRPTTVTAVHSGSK

CaMKK2 = CaMKK2 (Homo sapiens, UniProt Q96RR4)
Chain of CaMKK2 (Q96RR4 whole entry): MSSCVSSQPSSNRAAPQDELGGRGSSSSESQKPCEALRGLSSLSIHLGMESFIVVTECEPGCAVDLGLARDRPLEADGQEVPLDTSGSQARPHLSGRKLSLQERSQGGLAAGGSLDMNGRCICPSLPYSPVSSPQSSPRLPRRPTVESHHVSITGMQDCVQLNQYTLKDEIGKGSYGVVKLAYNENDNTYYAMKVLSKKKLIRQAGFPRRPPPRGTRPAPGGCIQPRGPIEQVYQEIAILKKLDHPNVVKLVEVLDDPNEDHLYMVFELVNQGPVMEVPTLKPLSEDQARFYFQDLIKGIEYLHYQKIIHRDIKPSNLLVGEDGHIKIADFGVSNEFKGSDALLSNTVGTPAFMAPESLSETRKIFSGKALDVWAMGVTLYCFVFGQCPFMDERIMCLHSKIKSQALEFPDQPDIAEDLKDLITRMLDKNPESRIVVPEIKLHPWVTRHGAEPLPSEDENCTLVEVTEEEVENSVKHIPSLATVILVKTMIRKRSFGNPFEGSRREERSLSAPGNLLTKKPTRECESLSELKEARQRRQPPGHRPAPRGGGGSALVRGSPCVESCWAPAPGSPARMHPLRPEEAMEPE

Cc1cccc(-c2ccc(-c3cc4cnc(NCCCN5CCCC5=O)nc4n(CCCCN)c3=O)c(Cl)c2)n1 [compound 27, MR30]
ΔTm MR30 (27) (BRPF1): -1.8 °C
ΔTm MR30 (27) (EphA5): 2.8 °C
ΔTm MR30 (27) (CaMK1g): 3.6 °C
ΔTm MR30 (27) (BMPR2): -0.1 °C
ΔTm MR30 (27) (CaMK2d): -0.5 °C
ΔTm MR30 (27) (DYRK1A): -1.2 °C
ΔTm MR30 (27) (CLK1): -0.7 °C
ΔTm MR30 (27) (CaMK1d): 2.4 °C
ΔTm MR30 (27) (CaMKK2): 0.5 °C

Cc1cccc(-c2ccc(-c3cc4cnc(Nc5cc(C(F)(F)F)ccc5C)nc4n(CCCCN)c3=O)c(Cl)c2)n1 [compound 28, 8-(4-Aminobutyl)-6-(2-chloro-4-(6-methylpyridin-2-yl)phenyl)-2-((2-methyl-5-(trifluoromethyl)phenyl)amino)pyrido[2,3-d]pyrimidin-7(8H)-one]
ΔTm 28 (BRPF1): -1.6 °C
ΔTm 28 (EphA5): 4.5 °C
ΔTm 28 (CaMK1g): 5.7 °C
ΔTm 28 (BMPR2): -0.1 °C
ΔTm 28 (CaMK2d): -0.4 °C
ΔTm 28 (DYRK1A): 0.2 °C
ΔTm 28 (CLK1): 0.6 °C
ΔTm 28 (CaMK1d): 4.8 °C
ΔTm 28 (CaMKK2): 2.4 °C

Cc1cccc(-c2ccc(-c3cc4cnc(NCCCN5CCNCC5)nc4n(CCCCN)c3=O)c(Cl)c2)n1 [compound 29, 8-(4-Aminobutyl)-6-(2-chloro-4-(6-methylpyridin-2-yl)phenyl)-2-((3-(piperazin-1-yl)propyl)amino)pyrido[2,3-d]pyrimidin-7(8H)-one]
ΔTm 29 (BRPF1): -1.2 °C
ΔTm 29 (EphA5): 2.7 °C
ΔTm 29 (CaMK1g): 5.0 °C
ΔTm 29 (BMPR2): 0.0 °C
ΔTm 29 (CaMK2d): -0.1 °C
ΔTm 29 (DYRK1A): -0.3 °C
ΔTm 29 (CLK1): -0.3 °C
ΔTm 29 (CaMK1d): 3.7 °C
ΔTm 29 (CaMKK2): 0.7 °C

Cc1cccc(-c2ccc(-c3cc4cnc(Nc5ccc(CCCO)cc5)nc4n(CCCCN)c3=O)c(Cl)c2)n1 [compound 30, 8-(4-Aminobutyl)-6-(2-chloro-4-(6-methylpyridin-2-yl)phenyl)-2-((4-(3-hydroxypropyl)phenyl)amino)pyrido[2,3-d]pyrimidin-7(8H)-one]
ΔTm 30 (BRPF1): -4.4 °C
ΔTm 30 (EphA5): 6.6 °C
ΔTm 30 (CaMK1g): 7.5 °C
ΔTm 30 (BMPR2): -0.2 °C
ΔTm 30 (CaMK2d): 0.1 °C
ΔTm 30 (DYRK1A): -1.8 °C
ΔTm 30 (CLK1): -0.2 °C
ΔTm 30 (CaMK1d): 6.8 °C
ΔTm 30 (CaMKK2): 7.5 °C

Cc1cccc(-c2ccc(-c3cc4cnc(Nc5ccc(O)cc5)nc4n(CCCCN)c3=O)c(Cl)c2)n1 [compound 31, 8-(4-Aminobutyl)-6-(2-chloro-4-(6-methylpyridin-2-yl)phenyl)-2-((4-hydroxyphenyl)amino) pyrido[2,3-d]pyrimidin-7(8H)-one]
ΔTm 31 (BRPF1): -3.4 °C
ΔTm 31 (EphA5): 6.2 °C
ΔTm 31 (CaMK1g): 5.5 °C
ΔTm 31 (BMPR2): 1.0 °C
ΔTm 31 (CaMK2d): -0.1 °C
ΔTm 31 (DYRK1A): -1.0 °C
ΔTm 31 (CLK1): 0.8 °C
ΔTm 31 (CaMK1d): 5.6 °C
ΔTm 31 (CaMKK2): 5.2 °C

Cc1cccc(-c2ccc(-c3cc4cnc(Nc5ccc(C)c(O)c5)nc4n(CCCCN)c3=O)c(Cl)c2)n1 [compound 32, 8-(4-Aminobutyl)-6-(2-chloro-4-(6-methylpyridin-2-yl)phenyl)-2-((3-hydroxy-4-methylphenyl)amino)pyrido[2,3-d]pyrimidin-7(8H)-one]
ΔTm 32 (BRPF1): -1.4 °C
ΔTm 32 (EphA5): 6.6 °C
ΔTm 32 (CaMK1g): 6.4 °C
ΔTm 32 (BMPR2): -0.4 °C
ΔTm 32 (CaMK2d): 0.0 °C
ΔTm 32 (DYRK1A): -0.4 °C
ΔTm 32 (CLK1): 0.7 °C
ΔTm 32 (CaMK1d): 6.0 °C
ΔTm 32 (CaMKK2): 6.8 °C
